The values that follow are results of earlier work, collected in US20240100064A1, “METHODS OF TREATING NEURODEVELOPMENTAL DISORDERS” (Woolsey Pharmaceuticals, Inc., priority 2020, published 2024).

For data set [1] the following is noted: in vivo, 1-hydroxy metabolite (Shibuya 2001).
The test system of data set [2] is oligophrenin-1-deficient mice.
Setting [3] is: oligophrenin-1-deficient mice (Allegra et al. 2017).
Where [4] appears, read: oligophrenin-1 deficient mice (Meziane et al. 2016).

Each structure is given as a SMILES string. Counter-ions that a name gives are not always drawn.

Take `O=S(=O)(c1cccc2c(O)nccc12)N1CCCNCC1` [M3]: the half-life result in data set [1] is listed as “about 8 hours”.
Take `O=S(=O)(c1cccc2cnccc12)N1CCCNCC1` [Fasudil, Hexahydro-1-(5-isoquinolinesulfonyl)-1H-1,4-diazepine monohydrochloride hemihydrate]: in data set [2] (setting [3]), the rescuing axon formation result is “not effective” and the spine density entry is reported as “restored”. Besides, the hippocampal hyperexcitability result in data set [2] (oligophrenin-1 deficient mice (Busti 2020)) was “rescue”. Further, in data set [2] (setting [4]), the behavioral changes entry is given as “reverse” and the brain ventricular enlargement entry is “reverse”.
